Experimental data published in patent US11485792B2, “Antibodies, uses thereof and conjugates thereof” (Polytherics Limited, priority 2016, dated 2022).
Where two headings read alike, the source gives them in different places. Where a SMILES comes first, the peptide text is derived from it. [ ]: non-standard residue; d: D form. The star is where a group is joined. Dolaproine = CO[C@@H]([C@@H]1CCCN1)[C@@H](C)C(=O)O; Dil = CC[C@H](C)[C@H](NC)[C@@H](CC(=O)O)OC; X1 = C[C@@H](N*)[C@@H](O)c1ccccc1; NMeV = CN[C@H](C(=O)O)C(C)C

Key:
[1] = Heat stress test with SEC analysis of aggregation; assay type: physicochemical
Procedure: Antibody samples (0.5 mg/mL in PBS) were incubated at 75° C. for 30 min followed by incubation in an ice-bath for 5 min prior to being analysed for their extent of aggregation. Analysis of antibody solutions was carried out by Size Exclusion Chromatography (SEC) and by turbidity measurements.
SEC was performed using a TOSOH Bioscience TSK gel Super SW 3000 column. UV absorbance at 280 nm was monitored during an isocratic elution with a 0.2 M Potassium phosphate buffer, pH 6.8 (0.2 M potassium chloride and 15% isopropanol). The elution times and number of peaks indicate whether the sample contains aggregated, degraded or native antibody. The % area under the curve (Abs280) was used to determine the quantity of each species present in the SEC analysis.

LNCaP cells = assay type: cell-based
Text: (§1) The protocol describes cell seeding, drug treatment and determination of the cell viability in reference to untreated cells based on ATP synthesis, which is directly related to the number of cells present in the well.

C4-2 cells = assay: In vitro cell viability assay (CellTiter Glo), C4-2; assay type: cell-based, human; settings: Example 16; PSMA-positive C4-2, 96 h
Text: as §1

PC-3 cells = assay: In vitro cell viability assay (CellTiter Glo), PC-3 (PSMA-negative control); assay type: cell-based; settings: Example 16; PSMA-negative PC-3 (negative control), 96 h
Text: Loss of tumour cell viability following treatment with cytotoxic drugs or ADCs in vitro can be measured by growing cell lines in the presence of increasing concentrations of drugs or ADCs and quantifying the loss of proliferation or metabolic activity using CellTiter Glo® Luminescence reagent (Promega Corp. Technical Bulletin TB288; Lewis Phillips G. D, Cancer Res 2008; 68:9280-9290). The protocol describes cell seeding, drug treatment and determination of the cell viability in reference to untreated cells based on ATP synthesis, which is directly related to the number of cells present in the well.
PSMA-positive LNCaP (clone FGC) and C4-2 cells, as well as PSMA-negative PC-3 cells were detached with TrypLE and resuspended in complete medium. Cells were counted using disposable Neubauer counting chambers and cell density adjusted to 10×10^4 cells/mL for LNCaP, 2×10^4 cells/mL for C4-2 and 1×10^4 cells/mL for PC-3 respectively. […]
The cell viability assay was carried out using the Cell-Titer Glo® Luminescence reagent, as described by the manufacturer's instructions, (Promega Corp. Technical Bulletin TB288; Lewis Phillips G. D, Cancer Res 2008; 68:9280-9290). Luminescence was recorded using a plate reader (e.g. Molecular Devices Spectramax M3 plate reader), and data subsequently analysed using a four parameter non-linear regression model. […]

[2] = post stress test: 0.5 mg/mL in PBS, 75° C. for 30 min, then ice-bath 5 min, SEC

In the case of “AB-22: de-immunised J591 anti-PSMA antibody, SEQ ID No 25 and 26; prior art comparator”, the “Ab in aggregated form (%)” value [1, 2] is reported as 100%, the “Ab in native conformation (%)” value [1, 2] is reported as 0% and the “stability in heat stress SEC analysis (in words)” value ([1]; propensity to aggregate upon heating and cooling) is reported as “less stable than AB-03”.
For `CC[C@H](C)[C@@H]([C@@H](CC(=O)N1CCC[C@H]1[C@H](OC)[C@@H](C)C(=O)N[C@H](C)[C@@H](O)c1ccccc1)OC)N(C)C(=O)[C@@H](NC(=O)[C@@H](NC)C(C)C)C(C)C` [MMAE] (H-[NMeV]V[Dil][Dolaproine]-X1), the IC50 (LNCaP cells; Example 14, LNCaP, 96 h incubation) was 0.81 nM, the IC50 (C4-2 cells) was 0.28 nM and the IC50 (PC-3 cells) was 8.2 nM.
For `COc1cc2cc(c1Cl)N(C)C(=O)C[C@H](OC(=O)[C@H](C)N(C)C(=O)CCCCCN)[C@]1(C)O[C@H]1[C@H](C)[C@@H]1C[C@@](O)(NC(=O)O1)[C@H](OC)/C=C/C=C(\C)C2` [AHX-DM1], the IC50 (LNCaP cells; Example 16, PSMA-positive LNCaP, 96 h) was 341 nM, the IC50 (C4-2 cells) was 57 nM and the IC50 (PC-3 cells) was > 1000 nM.
